Tested on: Jurkat cells
Assay: (r) Cell cytotoxicity assay
Format: cell-based, human
Settings: 24 hours
Protocol: 1×10^5 Jurkat cells (immortalised human T lymphocytes) are added to the appropriate number of wells of a 96 well plate in 100 μL of media (RPMI supplemented with 10% foetal bovine serum). 1 μL of DMSO control (final concentration 1.0% v/v) or test compound (final concentration 20, 5 or 1 μg/mL) is added to the wells and incubated at 37° C., 5% CO2. After 24 hours, the plate is centrifuged at 1200 rpm for 3 minutes and the supernatant discarded. Cells are then resuspended in 150 μL (final concentration 7.5 μg/mL) of propidium iodide (PI) in PBS and incubated at 37° C., 5% CO2 for 15 minutes. After 15 minutes, cells are analysed by flow cytometry (BD accuri) using the FL3 window. The % viability is calculated as the % of cells that are PI negative in the test wells normalised to the DMSO control.

SMILES	% Viability at 1 μg/mL [%]	% Viability at 5 μg/mL [%]	% Viability at 20 μg/mL [%]
COc1cc(Nc2cc(Oc3ccc(NC(=O)Nc4cc(C(C)(C)C)cc(NS(C)(=O)=O)c4OC)c4ccccc34)ccn2)ccc1S(=O)(=O)CCCN1CCN(C)CC1 [17(ch), N-(5-(tert-Butyl)-2-methoxy-3-(3-(4-((2-((3-methoxy-4-((3-(4-methylpiperazin-1-yl)propyl)sulfonyl)phenyl)amino)pyridin-4-yl)oxy)naphthalen-1-yl)ureido)phenyl)methanesulfonamide]	82.0	10.2	0.7
COc1cc(Nc2cc(Oc3ccc(NC(=O)Nc4cc(C(C)(C)C)cc(NS(C)(=O)=O)c4OC)c4ccccc34)ccn2)ccc1C(=O)NCCN1CCN(C(=O)CCC(=O)O)CC1 [17(ck), 4-(4-(2-(4-((4-((4-(3-(5-(tert-Butyl)-2-methoxy-3-(methylsulfonamido)phenyl)ureido)-naphthalen-1-yl)oxy)pyridin-2-yl)amino)-2-methoxybenzamido)ethyl)piperazin-1-yl)-4-oxobutanoic acid]	96.1	96.1	95.5
COc1cc(Nc2cc(Oc3ccc(NC(=O)Nc4cc(C(C)(C)C)cc(NS(C)(=O)=O)c4OC)c4ccccc34)ccn2)ccc1C(=O)NCCN1CCN(C(=O)CC[C@H](N)C(=O)O)CC1 [17(cl), (S)-2-Amino-5-(4-(2-(4-((4-((4-(3-(5-(tert-butyl)-2-methoxy-3-(methylsulfonamido)-phenyl)ureido)naphthalen-1-yl)oxy)pyridin-2-yl)amino)-2-methoxybenzamido)ethyl)piperazin-1-yl)-5-oxopentanoic acid]	93.6	94.0	93.7
COc1cc(Nc2cc(Oc3ccc(NC(=O)Nc4cc(C(C)(C)C)cc(NS(C)(=O)=O)c4OC)c4ccccc34)ccn2)ccc1C(=O)NC[C@@H]1O[C@H](CO)[C@@H](O)[C@H](O)[C@H]1O [17(co), 4-((4-((4-(3-(5-(tert-Butyl)-2-methoxy-3-(methylsulfonamido)phenyl)ureido)naphthalen-1-yl)oxy)pyridin-2-yl)amino)-2-methoxy-N-(((2S,3R,4R,5S,6R)-3,4,5-trihydroxy-6-(hydroxymethyl)tetrahydro-2H-pyran-2-yl)methyl)benzamide]	94.5	93.3	92.2
COc1cc(Nc2cc(Oc3ccc(NC(=O)Nc4cc(C(C)(C)C)cc(NS(C)(=O)=O)c4OC)c4ccccc34)ccn2)ccc1C(=O)N[C@@H]1CCN(C)C1 [17(cq), (R)-4-((4-((4-(3-(5-(tert-Butyl)-2-methoxy-3-(methylsulfonamido)phenyl)ureido)-naphthalen-1-yl)oxy)pyridin-2-yl)amino)-2-methoxy-N-(1-methylpyrrolidin-3-yl)benzamide]	74.3	9.0	0.7
COc1cc(Nc2cc(Oc3ccc(NC(=O)Nc4cc(C(C)(C)C)cc(NS(C)(=O)=O)c4OC)c4ccccc34)ccn2)ccc1C(=O)NCCN1CC[C@@H](O)C1 [17(cr), (R)-4-((4-((4-(3-(5-(tert-Butyl)-2-methoxy-3-(methylsulfonamido)phenyl)ureido)-naphthalen-1-yl)oxy)pyridin-2-yl)amino)-N-(2-(3-hydroxypyrrolidin-1-yl)ethyl)-2-methoxybenzamide]	81.1	18.0	0.9
COc1cc(Nc2cc(Oc3ccc(NC(=O)Nc4cc(C(C)(C)C)cc(NS(C)(=O)=O)c4OC)c4ccccc34)ccn2)ccc1C(=O)NCCOCCOCCC(=O)O [17(x), 3-[2-[2-[[4-[[4-[[4-[[5-tert-butyl-3-(methanesulfonamido)-2-methoxyphenyl]carbamoyl-amino]-1-naphthyl]oxy]-2-pyridyl]amino]-2-methoxy-benzoyl]amino]ethoxy]ethoxy]propanoic acid]	95.4	94.2	38.9
COc1cc(Nc2cc(Oc3ccc(NC(=O)Nc4cc(C(C)(C)C)cc(C(N)=O)c4OC)c4ccccc34)ccn2)ccc1C(=O)O [Example 3, 4-((4-((4-(3-(5-(tert-Butyl)-3-carbamoyl-2-methoxyphenyl)ureido)naphthalen-1-yl)oxy)pyridin-2-yl)amino)-2-methoxybenzoic acid]	93.4	95.9	91.9
COc1cc(Nc2cc(Oc3ccc(NC(=O)Nc4cc(C(C)(C)C)cc(NS(C)(=O)=O)c4OC)c4ccccc34)ccn2)cc(OC)c1C(=O)NCCCN1CCOCC1 [Example 23, 4-((4-((4-(3-(5-(tert-Butyl)-2-methoxy-3-(methylsulfonamido)phenyl)ureido)naphthalen-1-yl)oxy)pyridin-2-yl)amino)-2,6-dimethoxy-N-(3-morpholinopropyl)benzamide]	92.4	88.9	89.8
COc1cc(Nc2cc(Oc3ccc(NC(=O)Nc4cc(C(C)(C)C)cc(NS(C)(=O)=O)c4OC)c4ccccc34)ccn2)ccc1-c1nn[nH]n1 [Example 24, N-(5-(tert-Butyl)-2-methoxy-3-(3-(4-((2-((3-methoxy-4-(2H-tetrazol-5-yl)phenyl)amino)pyridin-4-yl)oxy)naphthalen-1-yl)ureido)phenyl)methanesulfonamide]	104.3	92.4	9.7
COc1cc(Nc2cc(Oc3ccc(NC(=O)Nc4cc(C(C)(C)C)cc(NS(C)(=O)=O)c4OC)c4ccccc34)ccn2)ccc1S(=O)(=O)N(C)CCCN1CCN(C)CC1 [Example 25, 4-((4-((4-(3-(5-(tert-Butyl)-2-methoxy-3-(methylsulfonamido)phenyl)ureido)naphthalen-1-yl)oxy)pyridin-2-yl)amino)-2-methoxy-N-methyl-N-(3-(4-methylpiperazin-1-yl)propyl)benzenesulfonamide]	91.8	78.9	0.7
COc1cc(Nc2cc(Oc3ccc(NC(=O)Nc4cc(C(C)(C)C)cc(NS(C)(=O)=O)c4OC)c4ccccc34)ccn2)ccc1C(=O)NCCC1CCNCC1 [Example 27, 4-((4-((4-(3-(5-(tert-Butyl)-2-methoxy-3-(methylsulfonamido)phenyl)ureido)naphthalen-1-yl)oxy)pyridin-2-yl)amino)-2-methoxy-N-(2-(piperidin-4-yl)ethyl)benzamide]	101.2	94.9	1.7
COc1cc(Nc2nccc(Oc3ccc(NC(=O)Nc4cc(C(C)(C)C)cc(NS(C)(=O)=O)c4OC)c4ccccc34)n2)ccc1S(N)(=O)=O [Example 28, 4-((4-((4-(3-(5-(tert-Butyl)-2-methoxy-3-(methylsulfonamido)phenyl)ureido)naphthalen-1-yl)oxy)pyrimidin-2-yl)amino)-2-methoxybenzenesulfonamide]	100.0	41.1	18.9
COc1c(NC(=O)Nc2ccc(Oc3ccnc(Nc4ccc(C(=O)NCCCN5CCOCC5)c(O)c4)c3)c3ccccc23)cc(C(C)(C)C)cc1NS(C)(=O)=O [Example 29, 4-((4-((4-(3-(5-(tert-Butyl)-2-methoxy-3-(methylsulfonamido)phenyl)ureido)naphthalen-1-yl)oxy)pyridin-2-yl)amino)-2-hydroxy-N-(3-morpholinopropyl)benzamide]	101.2	46.6	2.0
COc1cc(Nc2cc(Oc3ccc(NC(=O)Nc4cc(C(C)(C)C)cc(NS(C)(=O)=O)c4OC)c4ccccc34)ccn2)ccc1-n1ccccc1=O [Example 31, N-(5-(tert-Butyl)-2-methoxy-3-(3-(4-((2-((3-methoxy-4-(2-oxopyridin-1 (2H)-yl)phenyl)amino)-pyridin-4-yl)oxy)naphthalen-1-yl)ureido)phenyl)methanesulfonamide]	99.9	97.6	99.0
COc1cc(Nc2cc(Oc3ccc(NC(=O)Nc4cc(C(C)(C)C)cc(C(=O)NCCO)c4OC)c4ccccc34)ccn2)ccc1C(=O)NCCN1CC[S+]([O-])CC1 [Example 32, 5-(tert-Butyl)-N-(2-hydroxyethyl)-2-methoxy-3-(3-(4-((2-((3-methoxy-4-((2-(1-oxidothiomorpholino)ethyl)carbamoyl)phenyl)amino)pyridin-4-yl)oxy)naphthalen-1-yl)ureido)benzamide]	95.4	43.1	2.5
COc1cc(Nc2cc(Oc3ccc(NC(=O)Nc4cc(C(C)(C)C)cc(NS(C)(=O)=O)c4OC)c4ccccc34)ccn2)ccc1C(=O)NCC[N+]1([O-])CCOCC1 [Example 33, 4-(2-(4-((4-((4-(3-(5-(tert-Butyl)-2-methoxy-3-(methylsulfonamido)phenyl)ureido)naphthalen-1-yl)oxy)pyridin-2-yl)amino)-2-methoxybenzamido)ethyl)morpholine 4-oxide]	104.1	95.5	69.3
COc1cc(Nc2cc(Oc3ccc(NC(=O)Nc4cc(C(C)(C)C)cc(NS(C)(=O)=O)c4OC)c4ccccc34)ccn2)ccc1C(=O)NCC(CO)(CO)CO [Example 38, 4-((4-((4-(3-(5-(tert-Butyl)-2-methoxy-3-(methylsulfonamido)phenyl)ureido)naphthalen-1-yl)oxy)pyridin-2-yl)amino)-N-(3-hydroxy-2,2-bis(hydroxymethyl)propyl)-2-methoxybenzamide]	90.0	63.7	6.0

— patent US10125100B2, “Kinase inhibitors” (Respivert Limited, priority 2014, dated 2018)
